Measurements: patent US20230286970A1, “NOVEL OXADIAZOLE-BASED SELECTIVE HDAC6 INHIBITORS” (ITALFARMACO S.P.A., priority 2020, published 2023)

How the values were obtained:
recombinant human HDAC6 = recombinant human HDAC6 (Homo sapiens (Human), UniProt Q9UBN7); experiment: Enzymatic screening, HDAC6 inhibition (fluorogenic FdL_G substrate); format: biochemical
Description: (§1) For each test compound, 100× concentrated DMSO solutions at 8 doses were prepared and then diluted in assay buffer (25 mM Tris-HCl, pH 8, 130 mM NaCl, 0.05% Tween-20, 10% Glycerol) to obtain 5× concentrated solutions in relation to the final concentrations (typical final concentration range—6.4-200000 nM or 0.18-50000 nM, final DMSO content—1%). Then 10 μL solution of each test compound concentration were placed on a 96-well plate in triplicate and 15 μL of 3.33× concentrated enzyme solution in the assay buffer containing 3.33× concentrated BSA (final BSA concentration—2 mg/mL for HDAC4, HDAC5 and HDAC9 or 1 mg/mL for other isoforms) and in the case of HDAC6-3.33× concentrated TCEP (final TCEP concentration—200 μM) were added to each well. After a period of preincubation (incubation times and temperatures vary for different isoforms and are shown in table 1) 25 μL of solution containing the substrate were added. As substrate, FLUOR DE LYS® deacetylase substrate (Enzo Life Sciences, cat: BML-KI104, FdL), FLUOR DE LYS®-Green substrate (Enzo Life Sciences, cat: BML-KI572, FdL_G) or Boc-Lys(Tfa)-AMC (Bachem, cat: 4060676.005, Tfal)—2× concentrated solution in assay buffer were used. Following a reaction period (reaction times and temperatures vary for different isoforms and are reported in Table 1), 50 μL of the development solution consisting of concentrate FLUOR DE LYS® developer I (Enzo Life Sciences, ca: BML-KI105), diluted 200 times in buffer (50 mM Tris-HCl, pH 8, 137 mM NaCl, 2.7 mM KCl, 1 mM MgCl2) plus 2 μM TSA was added and, after 25 minutes at room temperature in the dark, using the Victor 1420 Multilabel Counter Perkin Elmer Wallac instrument, the fluorescence reading was carried out.

recombinant human HDAC1 = recombinant human HDAC1 (Homo sapiens (Human), UniProt Q13547); experiment: Enzymatic screening, HDAC1 inhibition (fluorogenic FdL_G substrate); format: biochemical
Description: as §1

Sequence of recombinant human HDAC6 (Q9UBN7 whole entry, canonical isoform): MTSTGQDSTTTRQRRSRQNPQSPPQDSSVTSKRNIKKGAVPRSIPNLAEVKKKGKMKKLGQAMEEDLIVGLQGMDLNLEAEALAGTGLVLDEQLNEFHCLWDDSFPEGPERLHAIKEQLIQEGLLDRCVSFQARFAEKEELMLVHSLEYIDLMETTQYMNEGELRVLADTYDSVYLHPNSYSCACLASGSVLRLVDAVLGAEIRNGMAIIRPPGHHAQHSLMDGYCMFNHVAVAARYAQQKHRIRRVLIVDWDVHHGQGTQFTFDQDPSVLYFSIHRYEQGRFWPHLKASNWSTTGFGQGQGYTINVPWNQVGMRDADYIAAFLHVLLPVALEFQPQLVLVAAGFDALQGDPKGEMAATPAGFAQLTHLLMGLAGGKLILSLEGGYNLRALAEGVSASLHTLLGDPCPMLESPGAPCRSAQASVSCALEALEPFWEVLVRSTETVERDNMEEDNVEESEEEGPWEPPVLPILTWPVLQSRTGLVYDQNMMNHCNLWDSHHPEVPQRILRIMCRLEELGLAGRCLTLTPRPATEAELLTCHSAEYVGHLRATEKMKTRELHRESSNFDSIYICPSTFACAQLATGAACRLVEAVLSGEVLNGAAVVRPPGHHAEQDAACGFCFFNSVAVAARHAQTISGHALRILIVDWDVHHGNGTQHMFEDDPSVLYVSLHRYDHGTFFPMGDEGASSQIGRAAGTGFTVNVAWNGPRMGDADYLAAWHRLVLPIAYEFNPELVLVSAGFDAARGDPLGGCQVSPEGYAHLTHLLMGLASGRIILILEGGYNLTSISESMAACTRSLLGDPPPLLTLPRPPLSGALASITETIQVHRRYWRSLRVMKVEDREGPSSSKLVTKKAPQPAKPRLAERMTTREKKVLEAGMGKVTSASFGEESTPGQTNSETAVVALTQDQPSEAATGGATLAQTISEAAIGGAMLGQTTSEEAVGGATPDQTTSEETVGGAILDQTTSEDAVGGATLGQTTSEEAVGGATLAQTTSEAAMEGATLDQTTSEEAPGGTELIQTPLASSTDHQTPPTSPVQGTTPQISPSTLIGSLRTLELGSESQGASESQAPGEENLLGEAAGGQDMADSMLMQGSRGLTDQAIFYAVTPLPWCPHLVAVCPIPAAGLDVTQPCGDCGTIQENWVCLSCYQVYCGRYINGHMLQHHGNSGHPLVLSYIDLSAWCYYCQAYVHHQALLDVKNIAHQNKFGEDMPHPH
Sequence of recombinant human HDAC1 (Q13547 whole entry): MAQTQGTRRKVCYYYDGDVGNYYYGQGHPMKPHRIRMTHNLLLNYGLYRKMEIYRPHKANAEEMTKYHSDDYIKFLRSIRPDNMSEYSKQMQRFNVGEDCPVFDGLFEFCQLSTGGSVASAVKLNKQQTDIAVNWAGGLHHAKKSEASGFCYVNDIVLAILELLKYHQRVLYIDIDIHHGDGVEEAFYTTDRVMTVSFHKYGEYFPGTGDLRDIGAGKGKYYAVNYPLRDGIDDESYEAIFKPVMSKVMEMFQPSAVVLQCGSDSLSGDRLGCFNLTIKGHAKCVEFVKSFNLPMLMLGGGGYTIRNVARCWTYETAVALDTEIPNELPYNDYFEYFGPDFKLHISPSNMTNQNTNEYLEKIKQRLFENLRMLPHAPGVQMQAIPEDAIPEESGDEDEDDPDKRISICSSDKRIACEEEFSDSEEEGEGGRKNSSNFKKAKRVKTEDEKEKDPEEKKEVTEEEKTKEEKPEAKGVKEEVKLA

SMILES | IC50 (recombinant human HDAC6) [nM] | IC50 (recombinant human HDAC1) [nM]
O=C(Nc1cccc(-c2cn(Cc3ccc(-c4nnc(C(F)F)o4)cc3)cn2)c1)N1CCOCC1 [compd. 267, N-(3-(1-(4-(5-(difluoromethyl)-1,3,4-oxadiazol-2-yl)benzyl)-1H-imidazol-4-yl)phenyl)morpholine-4-carboxamide] | 85 | > 200000
Nc1ccc(-c2cn(Cc3c(F)cc(-c4nnc(C(F)F)o4)cc3F)nn2)cn1 [compound 42, 5-(1-(4-(5-(difluoromethyl)-1,3,4-oxadiazol-2-yl)-2,6-difluorobenzyl)-1H-1,2,3-triazol-4-yl)pyridin-2-amine] | 19 | > 200000
O=C(Nc1cccc(-c2nnn(Cc3ccc(-c4nnc(C(F)F)o4)cc3)n2)c1)N1CCOCC1 [compound 71, N-(3-(2-(4-(5-(difluoromethyl)-1,3,4-oxadiazol-2-yl)benzyl)-2H-tetrazol-5-yl)phenyl)morpholine-4-carboxamide] | 30 | > 200000
Nc1cccc(-c2cn(Cc3ccc(-c4nnc(C(F)F)o4)cc3)nn2)c1 [compound 192, 3-(1-(4-(5-(difluoromethyl)-1,3,4-oxadiazol-2-yl)benzyl)-1H-1,2,3-triazol-4-yl)aniline] | 102 | > 200000
FC(F)c1nnc(-c2ccc(Cn3nnc(-c4cccc(-c5cnn6c5CNCC6)c4)n3)cc2)o1 [compound 111, 2-(difluoromethyl)-5-(4-((5-(3-(4,5,6,7-tetrahydropyrazolo[1,5-a]pyrazin-3-yl)phenyl)-2H-tetrazol-2-yl)methyl)phenyl)-1,3,4-oxadiazole] | 42 | > 200000
Fc1cccc(-c2cn(Cc3ccc(-c4nnc(C(F)F)o4)cc3)nn2)c1 [compound 248, 2-(difluoromethyl)-5-(4-((4-(3-fluorophenyl)-1H-1,2,3-triazol-1-yl)methyl)phenyl)-1,3,4-oxadiazole] | 275 | > 200000
O=C(Nc1cc(-c2nnn(Cc3c(F)cc(-c4nnc(C(F)F)o4)cc3F)n2)ccc1OC(=O)N1CCOCC1)N1CCOCC1 [compound 196, 4-(2-(4-(5-(difluoromethyl)-1,3,4-oxadiazol-2-yl)-2,6-difluorobenzyl)-2H-tetrazol-5-yl)-2-(morpholine-4-carboxamido)phenyl morpholine-4-carboxylate] | 107 | > 200000
Nc1ccc(-c2nnn(Cc3c(F)cc(-c4nnc(C(F)F)o4)cc3F)n2)cn1 [compound 45, 5-(2-(4-(5-(difluoromethyl)-1,3,4-oxadiazol-2-yl)-2,6-difluorobenzyl)-2H-tetrazol-5-yl)pyridin-2-amine] | 20 | > 200000
CC(c1ccc(-c2nnc(C(F)F)o2)cc1F)n1cc(-c2cccc(NC(=O)N3CCOCC3)c2)nn1 (centres unmarked) [compound 165, N-(3-(1-(1-(4-(5-(difluoromethyl)-1,3,4-oxadiazol-2-yl)-2-fluorophenyl)ethyl)-1H-1,2,3-triazol-4-yl)phenyl)morpholine-4-carboxamide] | 78 | > 200000
Cn1c(Sc2c(F)cc(-c3nnc(C(F)F)o3)cc2F)nnc1-c1ccc(N)nc1 [compound 284, 5-(5-((4-(5-(difluoromethyl)-1,3,4-oxadiazol-2-yl)-2,6-difluorophenyl)thio)-4-methyl-4H-1,2,4-triazol-3-yl)pyridin-2-amine] | 323 | > 200000
NC(=O)c1cccc(-c2nc(Cc3ccc(-c4nnc(C(F)F)o4)cc3)no2)c1 [compound 262, 3-(3-(4-(5-(difluoromethyl)-1,3,4-oxadiazol-2-yl)benzyl)-1,2,4-oxadiazol-5-yl)benzamide] | 488 | > 200000

Continued, values first:

IC50 (recombinant human HDAC6) [nM] | IC50 (recombinant human HDAC1) [nM] | SMILES
104 | > 200000 | O=C1Nc2cc(-c3nnn(Cc4ccc(-c5nnc(C(F)F)o5)cc4)n3)ccc2NC12CCCC2 [compound 195, 6′-(2-(4-(5-(difluoromethyl)-1,3,4-oxadiazol-2-yl)benzyl)-2H-tetrazol-5-yl)-1′,4′-dihydro-3′H-spiro[cyclopentane-1,2′-quinoxalin]-3′-one]
31 | > 200000 | Nc1cncc(-c2cn(Cc3c(F)cc(-c4nnc(C(F)F)o4)cc3F)nn2)c1 [compound 73, 5-(1-(4-(5-(difluoromethyl)-1,3,4-oxadiazol-2-yl)-2,6-difluorobenzyl)-1H-1,2,3-triazol-4-yl)pyridin-3-amine]
88 | > 200000 | NC(=S)Nc1cccc(-c2cn(Cc3c(F)cc(-c4nnc(C(F)F)o4)cc3F)nn2)c1 [compound 175, 1-(3-(1-(4-(5-(difluoromethyl)-1,3,4-oxadiazol-2-yl)-2,6-difluorobenzyl)-1H-1,2,3-triazol-4-yl)phenyl)thiourea]
41 | > 1e+06 | Nc1ccc(-c2cn([C@@H](CN3CCCC3)c3ccc(-c4nnc(C(F)F)o4)cc3)nn2)cn1 [compound 312, 5-[1-[(1R)-1-[4-[5-(difluoromethyl)-1,3,4-oxadiazol-2-yl]phenyl]-2-pyrrolidin-1-ylethyl]triazol-4-yl]pyridin-2-amine]
51 | > 200000 | Nc1nc2cc(-c3cn(Cc4ccc(-c5nnc(C(F)F)o5)cc4)nn3)ccc2s1 [compound 132, 5-(1-(4-(5-(difluoromethyl)-1,3,4-oxadiazol-2-yl)benzyl)-1H-1,2,3-triazol-4-yl)benzo[d]thiazol-2-amine]
179 | > 200000 | CC(c1ccc(-c2nnc(C(F)F)o2)cc1)n1nnc(-c2ccc3c(c2)C(=O)N(C)CC3)n1 (centres unmarked) [compound 229, 7-(2-(1-(4-(5-(difluoromethyl)-1,3,4-oxadiazol-2-yl)phenyl)ethyl)-2H-tetrazol-5-yl)-2-methyl-3,4-dihydroisoquinolin-1 (2H)-one]
53 | > 200000 | O=C(c1cccc(-c2nnn(Cc3ccc(-c4nnc(C(F)F)o4)c(F)c3)n2)c1)N1CCOCC1 [compound 137, (3-(2-(4-(5-(difluoromethyl)-1,3,4-oxadiazol-2-yl)-3-fluorobenzyl)-2H-tetrazol-5-yl)phenyl)(morpholino)methanone]
64 | > 200000 | Nc1ccc(-c2cn(C(CN3CCCC3)c3ccc(-c4nnc(C(F)F)o4)cn3)nn2)cn1 (centres unmarked) [Compd. 301, 5-(1-(1-(5-(5-(difluoromethyl)-1,3,4-oxadiazol-2-yl)pyridin-2-yl)-2-(pyrrolidin-1-yl)ethyl)-1H-1,2,3-triazol-4-yl)pyridin-2-amine]
42 | > 1e+06 | Fc1cc(-c2nnc(C(F)F)o2)cnc1Cn1nnc(-c2cccc(-c3nc4c([nH]3)CCNC4)c2)n1 [compound 353, 2-(difluoromethyl)-5-[5-fluoro-6-[[5-[3-(4,5,6,7-tetrahydro-1H-imidazo[4,5-c]pyridin-2-yl)phenyl]tetrazol-2-yl]methyl]pyridin-3-yl]-1,3,4-oxadiazole]
59 | > 200000 | CNc1ccc2cc(-c3cn(Cc4ccc(-c5nnc(C(F)F)o5)cc4)nn3)ccc2n1 [compound 142, 6-(1-(4-(5-(difluoromethyl)-1,3,4-oxadiazol-2-yl)benzyl)-1H-1,2,3-triazol-4-yl)-N-methylquinolin-2-amine]
66 | > 200000 | FC(F)c1nnc(-c2ccc(Cn3nnc(-c4cccc5cnccc45)n3)cc2)o1 [compound 153, 2-(difluoromethyl)-5-(4-((5-(isoquinolin-5-yl)-2H-tetrazol-2-yl)methyl)phenyl)-1,3,4-oxadiazole]
